Results published in patent US11000033B2, “Ketone or oxime compound, and herbicide” (NISSAN CHEMICAL CORPORATION, priority 2014, dated 2021).

What was measured:
Format in all cases: in vivo
Veronica persica [1] = assay: Test Example 5: herbicidal effect by foliage application, plastic box (symbol R); conditions: 320 g/ha, 3 weeks after application
Method in brief: (§1)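 Emulsion formulation, diluted with water to the intended rate, was applied uniformly to leaves by small sprayer. Recipients were 14-day greenhouse-grown seedlings (25° C. to 30° C.). Assessment followed at 3 weeks.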

corn = assay: Test Example 4: effect on crop by soil treatment (symbol c); conditions: for c: corn, effect grade on crop: 320 g/ha
Text: (§2) Herbicidal Effect Test by Soil Treatment
(§3) Sterilized diluvial soil was placed in a plastic box having a length of 21 cm, a width of 13 cm, and a depth of 7 cm. Each of the seeds of Digitaria ciliaris, Setaria viridis, Echinochloa crus-galli var. crus-galli, Avena fatua, Alopecurus myosuroides, Lolium multiflorum Lam., Apera spica-venti, Abutilon theophrasti, Amaranthus retroflexus, Chenopodium album, Stellaria media, Galium spurium, Veronica persica, corn, soybean, rice, wheat, beet, and rapeseed was sowed in a spot-like manner and was covered with the soil of a thickness of about 1.5 cm. […] The plastic box was placed in a greenhouse of 25° C. to 30° C. to grow plant.

Veronica persica [2] = assay: Test Example 4: herbicidal effect by soil treatment (symbol R); conditions: for R: Veronica persica, herbicidal effect grade: 320 g/ha
Text: as §2
(§4) Sterilized diluvial soil was placed in a plastic box having a length of 21 cm, a width of 13 cm, and a depth of 7 cm. Each of the seeds of Digitaria ciliaris, Setaria viridis, Echinochloa crus-galli var. crus-galli, Avena fatua, Alopecurus myosuroides, Lolium multiflorum Lam., Apera spica-venti, Abutilon theophrasti, Amaranthus retroflexus, Chenopodium album, Stellaria media, Galium spurium, Veronica persica, corn, soybean, rice, wheat, beet, and rapeseed was sowed in a spot-like manner and was covered with the soil of a thickness of about 1.5 cm. Subsequently, the emulsion agent of the compound present invention prepared in accordance with Formulation Example 2 was diluted with water so as to be a predetermined herbicide amount and the diluted emulsion agent was uniformly applied to the surface of the soil with a small-size spray. The plastic box was placed in a greenhouse of 25° C. to 30° C. to grow plant. 3 weeks later from the herbicide application, the effect to each plant was investigated in accordance with the criteria of Test Example 1.

soybean [3] = assay: Test Example 5: effect on crop by foliage application, plastic box (symbol d); conditions: 320 g/ha, 3 weeks after application
Method in brief: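 Sterilized diluvial soil, plastic box (21 × 13 × 7 cm); spot sowing, ~1.5 cm soil cover; greenhouse 25–30° C.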

Alopecurus myosuroides [4] = assay: Test Example 5: herbicidal effect by foliage application, plastic box (symbol J); conditions: 320 g/ha, 3 weeks after application
Method in brief: as §1

Lolium multiflorum Lam. [5] = assay: Test Example 5: herbicidal effect by foliage application, plastic box (symbol K); conditions: 320 g/ha, 3 weeks after application
Method in brief: as §1

rice = assay: Test Example 4: effect on crop by soil treatment (symbol b); conditions: for b: directly sowed rice plant, effect grade on crop: 320 g/ha
Text: as §2, §3

Alopecurus myosuroides [6] = assay: Test Example 4: herbicidal effect by soil treatment (symbol J); conditions: for J: Alopecurus myosuroides, herbicidal effect grade: 320 g/ha
Text: as §2, §4

wheat = assay: Test Example 4: effect on crop by soil treatment (symbol e); conditions: for e: wheat, effect grade on crop: 320 g/ha
Text: as §2, §3

Setaria viridis [7] = assay: Test Example 5: herbicidal effect by foliage application, plastic box (symbol G); conditions: 320 g/ha, 3 weeks after application
Method in brief: as §1

Avena fatua = assay: Test Example 5: herbicidal effect by foliage application, plastic box (symbol I); conditions: 320 g/ha, 3 weeks after application
Method in brief: as §1

Lolium multiflorum Lam. [8] = assay: Test Example 4: herbicidal effect by soil treatment (symbol K); conditions: for K: Lolium multiflorum Lam., herbicidal effect grade: 320 g/ha
Text: as §2, §4

Cyperus difformis = assay: Test Example 3: herbicidal effect by foliage application, Wagner pot (symbol E); conditions: application herbicide amount 320 g/ha
Method in brief: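 Foliar spray of water-diluted emulsion formulation at a predetermined herbicide amount onto 14-day-old plants in flooded alluvial soil (water depth 0.1–0.5 cm), greenhouse 25–30 °C; rice sown alongside. Scored 3 wk post-application on set criteria.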

[9] = tested on: Echinochloa oryzacola Vasing.; assay: Test Example 1: herbicidal activity, application before weed generation in submerged conditions (symbol A); conditions: application herbicide amount 320 g/ha
Method in brief: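 Weed control was rated three weeks after treatment on a 0–5 scale, from 5% or lower up to 90% or more. Pre-emergence water-surface application of diluted emulsion at a predetermined rate was made on the day of sowing, in flooded (4 cm water) pots containing rice seedlings, kept at 25–30 °C under glass.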

soybean [10] = assay: Test Example 4: effect on crop by soil treatment (symbol d); conditions: for d: soybean, effect grade on crop: 320 g/ha
Text: as §2, §3

Apera spica-venti = assay: Test Example 4: herbicidal effect by soil treatment (symbol L)
Text: as §2, §4

Setaria viridis [11] = assay: Test Example 4: herbicidal effect by soil treatment (symbol G); conditions: for G: Setaria viridis, herbicidal effect grade: 320 g/ha
Text: as §2, §4

Amaranthus retroflexus = assay: Test Example 5: herbicidal effect by foliage application, plastic box (symbol N); conditions: 320 g/ha, 3 weeks after application
Method in brief: as §1

[12] = application herbicide amount 320 g/ha

Structure (SMILES) | R: Veronica persica, herbicidal effect grade (Veronica persica [1]) | d: soybean, effect on crop grade (soybean [3]) | J: Alopecurus myosuroides, herbicidal effect grade (Alopecurus myosuroides [4]) | K: Lolium multiflorum Lam., herbicidal effect grade (Lolium multiflorum Lam. [5]) | G: Setaria viridis, herbicidal effect grade (Setaria viridis [7]) | I: Avena fatua, herbicidal effect grade (Avena fatua) | N: Amaranthus retroflexus, herbicidal effect grade (Amaranthus retroflexus) | R: Veronica persica, herbicidal effect (criteria 0-5) (Veronica persica [1]) | c: corn, effect grade on crop (corn) | R: Veronica persica, herbicidal effect grade (Veronica persica [2]) | d: soybean, effect on crop (criteria 0-5) (soybean [3]) | J: Alopecurus myosuroides, herbicidal effect (criteria 0-5) (Alopecurus myosuroides [4]) | K: Lolium multiflorum Lam., herbicidal effect (criteria 0-5) (Lolium multiflorum Lam. [5]) | b: directly sowed rice plant, effect grade on crop (rice) | J: Alopecurus myosuroides, herbicidal effect grade (Alopecurus myosuroides [6]) | e: wheat, effect grade on crop (wheat) | G: Setaria viridis, herbicidal effect (criteria 0-5) (Setaria viridis [7]) | I: Avena fatua, herbicidal effect (criteria 0-5) (Avena fatua) | herbicidal effect on E, grade 0-5 (Cyperus difformis) | Herbicidal effect grade, A: Echinochloa oryzacola Vasing. [9] | other results
COCCON=C(CC1CC(O)=C(c2c(C)cc(Br)cc2C)C1=O)C1CC1 (stereo not shown) [9-019] | 0 (Herbicidal ratio of 5% or lower (almost no effect)) | 0 (Herbicidal ratio of 5% or lower (almost no effect)) | 4 (Herbicidal ratio of 70% or higher and lower than 90%) | 5 (Herbicidal ratio of 90% or more (almost completely withered)) | 5 (Herbicidal ratio of 90% or more (almost completely withered)) | 4 (Herbicidal ratio of 70% or higher and lower than 90%) | 0 (Herbicidal ratio of 5% or lower (almost no effect)) | – | – | – | – | – | – | – | – | – | – | – | – | – | Effect on crop grade, c: corn (corn; [12]): 0 (Herbicidal ratio of 5% or lower (almost no effect)); Herbicidal effect grade, R: Veronica persica (Veronica persica [2]; [12]): 0 (Herbicidal ratio of 5% or lower (almost no effect)); Effect on crop grade, b: directly sowed rice plant (rice; [12]): 5 (Herbicidal ratio of 90% or more (almost completely withered)); Herbicidal effect grade, J: Alopecurus myosuroides (Alopecurus myosuroides [6]; [12]): 5 (Herbicidal ratio of 90% or more (almost completely withered)); Effect on crop grade, e: wheat (wheat; [12]): 0 (Herbicidal ratio of 5% or lower (almost no effect)); Herbicidal effect grade, K: Lolium multiflorum Lam. (Lolium multiflorum Lam. [8]; [12]): 3 (Herbicidal ratio of 40% or higher and lower than 70%); E herbicidal effect grade (Cyperus difformis; Table 24): 4 (Herbicidal ratio of 70% or higher and lower than 90%); A (Echinochloa oryzacola Vasing.) herbicidal effect grade [9]: 4 (Herbicidal ratio of 70% or higher and lower than 90%); Effect on crop grade, d: soybean (soybean [10]; [12]): 0 (Herbicidal ratio of 5% or lower (almost no effect)); Herbicidal effect grade, L: Apera spica-venti (Apera spica-venti; [12]): 0 (Herbicidal ratio of 5% or lower (almost no effect)); Herbicidal effect grade, G: Setaria viridis (Setaria viridis [11]; [12]): 5 (Herbicidal ratio of 90% or more (almost completely withered))
CC(CC1CC(O)=C(c2c(C)cc(C)cc2C)C1=O)=NOCC#N (stereo not shown) [1-102] | – | – | – | – | – | – | – | 2 (Herbicidal ratio of 20% or higher and lower than 40%) | 0 (Herbicidal ratio of 5% or lower (almost no effect)) | 0 (Herbicidal ratio of 5% or lower (almost no effect)) | 0 (Herbicidal ratio of 5% or lower (almost no effect)) | 5 (Herbicidal ratio of 90% or more (almost completely withered)) | 5 (Herbicidal ratio of 90% or more (almost completely withered)) | 5 (Herbicidal ratio of 90% or more (almost completely withered)) | 5 (Herbicidal ratio of 90% or more (almost completely withered)) | 0 (Herbicidal ratio of 5% or lower (almost no effect)) | 5 (Herbicidal ratio of 90% or more (almost completely withered)) | 5 (Herbicidal ratio of 90% or more (almost completely withered)) | 5 (Herbicidal ratio of 90% or more (almost completely withered)) | 5 (Herbicidal ratio of 90% or more (almost completely withered)) | K: Lolium multiflorum Lam., herbicidal effect grade (Lolium multiflorum Lam. [8]): 5 (Herbicidal ratio of 90% or more (almost completely withered)); d: soybean, effect grade on crop (soybean [10]): 0 (Herbicidal ratio of 5% or lower (almost no effect)); L: Apera spica-venti, herbicidal effect grade (Apera spica-venti; 320 g/ha): 5 (Herbicidal ratio of 90% or more (almost completely withered)); G: Setaria viridis, herbicidal effect grade (Setaria viridis [11]): 5 (Herbicidal ratio of 90% or more (almost completely withered)); N: Amaranthus retroflexus, herbicidal effect (criteria 0-5) (Amaranthus retroflexus): 0 (Herbicidal ratio of 5% or lower (almost no effect))
C=CCOC1=C(c2c(C)cc(C)cc2C)C(=O)C(CC(C)=NOC)C1 (stereo not shown) [1-007] | 0 (Herbicidal ratio of 5% or lower (almost no effect)) | 0 (Herbicidal ratio of 5% or lower (almost no effect)) | 3 (Herbicidal ratio of 40% or higher and lower than 70%) | 5 (Herbicidal ratio of 90% or more (almost completely withered)) | 0 (Herbicidal ratio of 5% or lower (almost no effect)) | 3 (Herbicidal ratio of 40% or higher and lower than 70%) | 0 (Herbicidal ratio of 5% or lower (almost no effect)) | – | – | – | – | – | – | – | – | – | – | – | 0 (Herbicidal ratio of 5% or lower (almost no effect)) | 0 (Herbicidal ratio of 5% or lower (almost no effect)) | c (corn) effect on crop grade (corn; [12]): 0 (Herbicidal ratio of 5% or lower (almost no effect)); b (directly sowed rice plant) effect on crop grade (rice; [12]): 0 (Herbicidal ratio of 5% or lower (almost no effect)); J (Alopecurus myosuroides) herbicidal effect grade (Alopecurus myosuroides [6]; [12]): 0 (Herbicidal ratio of 5% or lower (almost no effect)); e (wheat) effect on crop grade (wheat; [12]): 0 (Herbicidal ratio of 5% or lower (almost no effect)); K (Lolium multiflorum Lam.) herbicidal effect grade (Lolium multiflorum Lam. [8]; [12]): 2 (Herbicidal ratio of 20% or higher and lower than 40%); d (soybean) effect on crop grade (soybean [10]; [12]): 0 (Herbicidal ratio of 5% or lower (almost no effect)); L (Apera spica-venti) herbicidal effect grade (Apera spica-venti; [12]): 3 (Herbicidal ratio of 40% or higher and lower than 70%); G (Setaria viridis) herbicidal effect grade (Setaria viridis [11]; [12]): 0 (Herbicidal ratio of 5% or lower (almost no effect))
CON=C(CC1CC(O)=C(c2c(C)cc(C)cc2C)C1=O)c1ccc(F)cc1 (stereo not shown) [1-133] | – | – | – | – | – | – | – | 3 (Herbicidal ratio of 40% or higher and lower than 70%) | 0 (Herbicidal ratio of 5% or lower (almost no effect)) | 0 (Herbicidal ratio of 5% or lower (almost no effect)) | 3 (Herbicidal ratio of 40% or higher and lower than 70%) | 4 (Herbicidal ratio of 70% or higher and lower than 90%) | 5 (Herbicidal ratio of 90% or more (almost completely withered)) | 0 (Herbicidal ratio of 5% or lower (almost no effect)) | 5 (Herbicidal ratio of 90% or more (almost completely withered)) | 0 (Herbicidal ratio of 5% or lower (almost no effect)) | 4 (Herbicidal ratio of 70% or higher and lower than 90%) | 3 (Herbicidal ratio of 40% or higher and lower than 70%) | 0 (Herbicidal ratio of 5% or lower (almost no effect)) | 4 (Herbicidal ratio of 70% or higher and lower than 90%) | K: Lolium multiflorum Lam., herbicidal effect grade (Lolium multiflorum Lam. [8]): 3 (Herbicidal ratio of 40% or higher and lower than 70%); d: soybean, effect grade on crop (soybean [10]): 4 (Herbicidal ratio of 70% or higher and lower than 90%); G: Setaria viridis, herbicidal effect grade (Setaria viridis [11]): 4 (Herbicidal ratio of 70% or higher and lower than 90%); N: Amaranthus retroflexus, herbicidal effect (criteria 0-5) (Amaranthus retroflexus): 0 (Herbicidal ratio of 5% or lower (almost no effect))
